Source: patent US20060159829A1, “Consumer product for enhancing mental focus” (Conopco Inc, d/b/a UNILEVER, priority 2004, published 2006)

Legend:
[1] = test system: spoilage yeasts or moulds; experiment: Antimicrobial effect of cinnamic acid at low and neutral pH; assay type: cell-based; settings: 100 ppm
[2] = cited from earlier work

SMILES	effect on growth of spoilage yeasts or moulds ([1]; neutral pH)	effect on growth of spoilage yeasts or moulds ([1]; pH 3.0)	pKa [2]
O=C(O)C=Cc1ccccc1 [cinnamic acid]	entirely without effect	completely extinguish growth	
O=S(O)O [sulphite]			1.88
